Source: the NIST ThermoML archive (doi:10.1016/j.fluid.2011.08.009)
± gives the expanded uncertainty stated by the source.

Conditions: Liquid, Closed cell (Static) method

Row | SMILES | vapor or sublimation pressure (342.18 K) | vapor or sublimation pressure (352.68 K) | vapor or sublimation pressure (313.17 K) | vapor or sublimation pressure (342.83 K) | vapor or sublimation pressure (323.18 K) | vapor or sublimation pressure (329.22 K)
1 | CCCCCCCCCCCC [dodecane] | 0.36 ± 0.1 kPa | 0.75 ± 0.1 kPa |  |  |  | 
2 | CCCO [propan-1-ol] |  | 49.8 ± 0.4 kPa | 6.99 ± 0.19 kPa | 31.45 ± 0.24 kPa |  | 
3 | O [water] |  |  | 7.36 ± 0.14 kPa | 30.65 ± 0.22 kPa | 12.18 ± 0.19 kPa | 
4 | CCCCCC [hexane] |  |  |  |  |  | 65.63 ± 0.67 kPa
5 | CCC(C)O (stereo not drawn) [butan-2-ol] |  | 44.66 ± 0.35 kPa |  | 28.43 ± 0.28 kPa | 10.74 ± 0.16 kPa | 14.55 ± 0.21 kPa
